Reference: patent publication US11590139B2, “Substituted aminopurine compounds, compositions thereof, and methods of treatment therewith” (Signal Pharmaceuticals, LLC, priority 2014, dated 2023)

Tested on: Lox-IMVI melanoma cell line
Assay: Lox-IMVI anti-proliferative assay (growth inhibition, Cell Titer-Glo)
Format: cell-based, human
Details: Homo sapiens; IC50 activity level in the cell-based Lox-IMVI anti-proliferative assay; read-out: Activity
How it was run: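 RPMI/10% FBS; cmpd 0.5 nM–10 μM, 3-fold ×10, duplicate, 0.2% DMSO final; 72 h, 37 °C, 5% CO2. ATP-luminescence readout at t0 and 72 h. IC50 = 50% of DMSO control, 4-parameter logistic fit.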

| Compound | IC50 |
| --- | --- |
| NC(=O)[C@H]1CC[C@@H](n2c(Nc3ccc(Cl)cc3Cl)nc3cnc(N[C@H]4COC[C@@H]4O)nc32)CC1 [Example 319, (1R,4s)-4-(8-(2,4-dichlorophenylamino)-2-((3S,4R)-4-hydroxytetrahydrofuran-3-ylamino)-9H-purin-9-yl)cyclohexanecarboxamide] | > 1000 nM |
| NC(=O)[C@H]1CC[C@@H](n2c(Nc3cc(Cl)ccc3F)nc3cnc(N[C@H]4COC[C@@H]4O)nc32)CC1 [Example 320, (1R,4s)-4-(8-(5-chloro-2-fluorophenylamino)-2-((3S,4R)-4-hydroxytetrahydrofuran-3-ylamino)-9H-purin-9-yl)cyclohexanecarboxamide] | > 1000 nM |
| NC(=O)[C@H]1CC[C@@H](n2c(Nc3cc(F)c(Cl)cc3F)nc3cnc(N[C@@H]4COC[C@H]4O)nc32)CC1 [Example 321, (1S,4s)-4-(8-(4-chloro-2,5-difluorophenylamino)-2-((3R,4S)-4-hydroxytetrahydrofuran-3-ylamino)-9H-purin-9-yl)cyclohexanecarboxamide] | > 1000 nM |
| NC(=O)[C@H]1CC[C@@H](n2c(Nc3c(F)cc(Cl)cc3F)nc3cnc(N[C@H]4C[C@@H](O)C4)nc32)CC1 [Example 322, (1s,4s)-4-(8-(4-chloro-2,6-difluorophenylamino)-2-((1s,3s)-3-hydroxycyclobutylamino)-9H-purin-9-yl)cyclohexanecarboxamide] | > 1000 nM |
| NC(=O)[C@H]1CC[C@@H](n2c(Nc3c(Cl)cc(Cl)cc3Cl)nc3cnc(N[C@H]4C[C@@H](O)C4)nc32)CC1 [Example 323, (1s,4s)-4-(2-((1s,3s)-3-hydroxycyclobutylamino)-8-(2,4,6-trichlorophenylamino)-9H-purin-9-yl)cyclohexanecarboxamide] | > 1000 nM |
| NC(=O)[C@H]1CC[C@@H](n2c(Nc3c(F)cc(Cl)cc3Cl)nc3cnc(N[C@H]4C[C@@H](O)C4)nc32)CC1 [Example 324, (1s,4s)-4-(8-(2,4-dichloro-6-fluorophenylamino)-2-((1s,3s)-3-hydroxycyclobutylamino)-9H-purin-9-yl)cyclohexanecarboxamide] | > 1000 nM |
| NC(=O)[C@H]1CC[C@@H](n2c(Nc3c(F)cccc3Cl)nc3cnc(N[C@H]4CC[C@H](O)C4)nc32)CC1 [Example 325, (1R,4s)-4-(8-(2-chloro-6-fluorophenylamino)-2-((1S,3S)-3-hydroxycyclopentylamino)-9H-purin-9-yl)cyclohexanecarboxamide] | > 1000 nM |
| NC(=O)[C@H]1CC[C@@H](n2c(Nc3c(F)cccc3F)nc3cnc(N[C@H]4CC[C@H](O)C4)nc32)CC1 [Example 326, (1R,4s)-4-(8-(2,6-difluorophenylamino)-2-((1S,3S)-3-hydroxycyclopentylamino)-9H-purin-9-yl)cyclohexanecarboxamide] | > 1000 nM |
| NC(=O)[C@H]1CC[C@@H](n2c(Nc3c(Cl)cccc3Cl)nc3cnc(N[C@H]4CC[C@H](O)C4)nc32)CC1 [Example 327, (1R,4s)-4-(8-(2,6-dichlorophenylamino)-2-((1S,3S)-3-hydroxycyclopentylamino)-9H-purin-9-yl)cyclohexanecarboxamide] | 500 to 1000 nM |
| NC(=O)[C@H]1CC[C@@H](n2c(Nc3c(F)cc(Cl)cc3F)nc3cnc(N[C@@H]4CC[C@H](O)C4)nc32)CC1 [Example 328, (1S,4s)-4-(8-(4-chloro-2,6-difluorophenylamino)-2-((1R,3S)-3-hydroxycyclopentylamino)-9H-purin-9-yl)cyclohexanecarboxamide] | > 1000 nM |
| NC(=O)[C@H]1CC[C@@H](n2c(Nc3c(F)cc(Cl)cc3F)nc3cnc(N[C@H]4CC[C@H](O)C4)nc32)CC1 [Example 329, (1R,4s)-4-(8-(4-chloro-2,6-difluorophenylamino)-2-((1S,3S)-3-hydroxycyclopentylamino)-9H-purin-9-yl)cyclohexanecarboxamide] | 500 to 1000 nM |
| NC(=O)[C@H]1CC[C@@H](n2c(Nc3c(Cl)cc(Cl)cc3Cl)nc3cnc(N[C@H]4CC[C@H](O)C4)nc32)CC1 [Example 330, (1R,4s)-4-(2-((1S,3S)-3-hydroxycyclopentylamino)-8-(2,4,6-trichlorophenylamino)-9H-purin-9-yl)cyclohexanecarboxamide] | 500 to 1000 nM |
| NC(=O)[C@H]1CC[C@@H](n2c(Nc3c(F)cc(F)cc3F)nc3cnc(N[C@H]4CC[C@H](O)C4)nc32)CC1 [Example 331, (1R,4s)-4-(2-((1S,3S)-3-hydroxycyclopentylamino)-8-(2,4,6-trifluorophenylamino)-9H-purin-9-yl)cyclohexanecarboxamide] | > 1000 nM |
| NC(=O)[C@H]1CC[C@@H](n2c(Nc3c(F)cc(F)cc3F)nc3cnc(N[C@@H]4CC[C@H](O)C4)nc32)CC1 [Example 332, (1S,4s)-4-(2-((1R,3S)-3-hydroxycyclopentylamino)-8-(2,4,6-trifluorophenylamino)-9H-purin-9-yl)cyclohexanecarboxamide] | > 1000 nM |
| NC(=O)[C@H]1CC[C@@H](n2c(Nc3c(Cl)cc(Cl)cc3Cl)nc3cnc(N[C@@H]4CC[C@H](O)C4)nc32)CC1 [Example 333, (1S,4s)-4-(2-((1R,3S)-3-hydroxycyclopentylamino)-8-(2,4,6-trichlorophenylamino)-9H-purin-9-yl)cyclohexanecarboxamide] | 500 to 1000 nM |
| CC[C@H](C)Nc1ncc2nc(Nc3c(F)cc(F)cc3F)n([C@H]3CC[C@@H](C(N)=O)CC3)c2n1 [Example 334, (1R,4s)-4-(2-(sec-butylamino)-8-(2,4,6-trifluorophenylamino)-9H-purin-9-yl)cyclohexanecarboxamide] | 500 to 1000 nM |
| CC[C@H](C)Nc1ncc2nc(Nc3c(F)cccc3F)n([C@H]3CC[C@@H](C(N)=O)CC3)c2n1 [Example 335, (1R,4s)-4-(2-(sec-butylamino)-8-(2,6-difluorophenylamino)-9H-purin-9-yl)cyclohexanecarboxamide] | > 1000 nM |
| CC[C@H](C)Nc1ncc2nc(Nc3c(Cl)cccc3Cl)n([C@H]3CC[C@@H](C(N)=O)CC3)c2n1 [Example 336, (1R,4s)-4-(2-(sec-butylamino)-8-(2,6-dichlorophenylamino)-9H-purin-9-yl)cyclohexanecarboxamide] | > 1000 nM |
| CC[C@H](C)Nc1ncc2nc(Nc3c(F)cccc3Cl)n([C@H]3CC[C@@H](C(N)=O)CC3)c2n1 [Example 337, (1R,4s)-4-(2-(sec-butylamino)-8-(2-chloro-6-fluorophenylamino)-9H-purin-9-yl)cyclohexanecarboxamide] | > 1000 nM |
| CC[C@H](C)Nc1ncc2nc(Nc3c(F)cc(F)cc3Cl)n([C@H]3CC[C@@H](C(N)=O)CC3)c2n1 [Example 338, (1R,4s)-4-(2-(sec-butylamino)-8-(2-chloro-4,6-difluorophenylamino)-9H-purin-9-yl)cyclohexanecarboxamide] | 500 to 1000 nM |
| CC[C@H](C)Nc1ncc2nc(Nc3c(F)cc(Cl)cc3Cl)n([C@H]3CC[C@@H](C(N)=O)CC3)c2n1 [Example 339, (1R,4s)-4-(2-(sec-butylamino)-8-(2,4-dichloro-6-fluorophenylamino)-9H-purin-9-yl)cyclohexanecarboxamide] | 500 to 1000 nM |
| CCC(C)Nc1ncc2nc(Nc3c(F)ccc(Cl)c3F)n([C@H]3CC[C@@H](C(N)=O)CC3)c2n1 (stereo partly drawn) [Example 340, (1R,4s)-4-(2-(sec-butylamino)-8-(3-chloro-2,6-difluorophenylamino)-9H-purin-9-yl)cyclohexanecarboxamide] | > 1000 nM |
| C[C@@H]1CC[C@@H](Nc2ncc3nc(Nc4c(F)cc(F)cc4F)n([C@H]4CC[C@@H](C(N)=O)CC4)c3n2)C[C@H]1O [Example 341, (1S,4s)-4-(2-((1R,3R,4R)-3-hydroxy-4-methylcyclohexylamino)-8-(2,4,6-trifluorophenylamino)-9H-purin-9-yl)cyclohexanecarboxamide] | > 1000 nM |
| C[C@@H]1CC[C@@H](Nc2ncc3nc(Nc4c(F)cccc4Cl)n([C@H]4CC[C@@H](C(N)=O)CC4)c3n2)C[C@H]1O [Example 342, (1S,4s)-4-(8-(2-chloro-6-fluorophenylamino)-2-((1R,3R,4R)-3-hydroxy-4-methylcyclohexylamino)-9H-purin-9-yl)cyclohexanecarboxamide] | > 1000 nM |
| C[C@@H]1CC[C@@H](Nc2ncc3nc(Nc4c(F)cccc4F)n([C@H]4CC[C@@H](C(N)=O)CC4)c3n2)C[C@H]1O [Example 343, (1S,4s)-4-(8-(2,6-difluorophenylamino)-2-((1R,3R,4R)-3-hydroxy-4-methylcyclohexylamino)-9H-purin-9-yl)cyclohexanecarboxamide] | > 1000 nM |
| C[C@@H]1CC[C@@H](Nc2ncc3nc(Nc4c(F)cc(F)cc4Cl)n([C@H]4CC[C@@H](C(N)=O)CC4)c3n2)C[C@H]1O [Example 344, (1S,4s)-4-(8-(2-chloro-4,6-difluorophenylamino)-2-((1R,3R,4R)-3-hydroxy-4-methylcyclohexylamino)-9H-purin-9-yl)cyclohexanecarboxamide] | > 1000 nM |
| C[C@@H]1CC[C@@H](Nc2ncc3nc(Nc4c(Cl)cccc4Cl)n([C@H]4CC[C@@H](C(N)=O)CC4)c3n2)C[C@H]1O [Example 345, (1S,4s)-4-(8-(2,6-dichlorophenylamino)-2-((1R,3R,4R)-3-hydroxy-4-methylcyclohexylamino)-9H-purin-9-yl)cyclohexanecarboxamide] | > 1000 nM |
| C[C@@H]1CC[C@@H](Nc2ncc3nc(Nc4c(F)cc(Cl)cc4Cl)n([C@H]4CC[C@@H](C(N)=O)CC4)c3n2)C[C@H]1O [Example 346, (1S,4s)-4-(8-(2,4-dichloro-6-fluorophenylamino)-2-((1R,3R,4R)-3-hydroxy-4-methylcyclohexylamino)-9H-purin-9-yl)cyclohexanecarboxamide] | 250 to 500 nM |
| NC(=O)[C@H]1CC[C@@H](n2c(Nc3c(F)cc(F)cc3F)nc3cnc(N[C@@H]4CCC[C@H](O)C4)nc32)CC1 [Example 347, (1S,4s)-4-(2-((1R,3S)-3-hydroxycyclohexylamino)-8-(2,4,6-trifluorophenylamino)-9H-purin-9-yl)cyclohexanecarboxamide] | > 1000 nM |
